{"source": "patent US11214803B2", "about": "“Modulators of YAP1 expression” (Ionis Pharmaceuticals, Inc., priority 2019, dated 2022)", "note": "Marks after values point to notes of the source that are not given here. Strand notation (5' to 3'): a small letter for the sugar, then the base; units joined by * are phosphorothioate-linked, units joined directly phosphodiester-linked; [ ] holds rarer units or linkages, { } end groups; capitals alone tell only the bases. k = constrained ethyl (cEt); [5mC] = 5-methylcytosine; d = 2'-deoxy (DNA)", "data": [{"tested_on": "Yap1 mRNA", "experiment": "Antisense inhibition of human Yap1 in A-431 cells by cEt gapmers, single dose (Example 4, RTS4814)", "type": "cell-based", "settings": "Table 14; A-431 cells, 5,000 cells per well, free uptake, 2,000 nM, approximately 48 hours; RTS4814; normalized to RIBOGREEN; Yap1 mRNA relative to untreated control; * = targets amplicon region of primer probe set", "outline": "(§1)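 A-431 cells took up 3-10-3 cEt gapmers (16-mer, full phosphorothioate, 5-methylcytosines) by free uptake at 2,000 nM for about 48 h. Yap1 mRNA was quantified by qRT-PCR, normalized to total RNA (RIBOGREEN), and reported as % of untreated control.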", "units": {"YAP1 (% UTC)": "% UTC"}, "values": [{"substance": "1075104 (antisense kA*kT*kT*dA*dT*dA*dA*dG*dG*dT*d[5mC]*d[5mC]*dT*kA*k[5mC]*kA) [Compound 1075104]", "YAP1 (% UTC)": 67}, {"substance": "1076384 (kT*kA*kT*dA*dA*dG*dG*dG*dA*d[5mC]*dT*dT*dG*k[5mC]*kT*kG; antisense) [Compound 1076384]", "YAP1 (% UTC)": 25}, {"substance": "1075712 (kG*kA*k[5mC]*dG*d[5mC]*dG*dA*dA*dA*dT*dA*d[5mC]*dT*kT*kA*k[5mC]; antisense) [Compound 1075712]", "YAP1 (% UTC)": 7}, {"substance": "1075040 (antisense kT*kT*kA*dT*dA*dA*dA*dG*dA*dG*dG*d[5mC]*dT*k[5mC]*kA*kG) [Compound 1075040]", "YAP1 (% UTC)": 10}]}, {"tested_on": "Yap1 mRNA", "experiment": "Antisense inhibition of human Yap1 in A-431 cells by cEt gapmers, single dose (Example 4, RTS4814)", "type": "cell-based", "settings": "Table 15; A-431 cells, 5,000 cells per well, free uptake, 2,000 nM, approximately 48 hours; RTS4814; normalized to RIBOGREEN; Yap1 mRNA relative to untreated control; * = targets amplicon region of primer probe set", "outline": "as §1", "units": {"YAP1 (% UTC)": "% UTC"}, "values": [{"substance": "1074977 (antisense k[5mC]*kT*kT*dG*dT*dT*d[5mC]*dT*dA*dT*dT*dG*dG*kA*kA*kG) [Compound 1074977]", "YAP1 (% UTC)": 94}, {"substance": "1074497 (k[5mC]*kA*kA*dT*dA*dA*d[5mC]*d[5mC]*dA*dT*d[5mC]*d[5mC]*d[5mC]*kA*kA*kG; antisense) [Compound 1074497]", "YAP1 (% UTC)": 26}, {"substance": "1075201 (antisense k[5mC]*kT*kT*dT*dA*dA*dA*dG*d[5mC]*d[5mC]*d[5mC]*dT*dA*kA*kT*kT) [Compound 1075201]", "YAP1 (% UTC)": 114}, {"substance": "1075777 (kT*kA*kT*dG*dT*dG*dA*dT*dA*dT*dG*dG*dA*kT*kT*k[5mC]; antisense) [Compound 1075777]", "YAP1 (% UTC)": 12}]}, {"tested_on": "Yap1 mRNA", "experiment": "Antisense inhibition of human Yap1 in A-431 cells by cEt gapmers, single dose (Example 4, RTS4814)", "type": "cell-based", "settings": "Table 16; A-431 cells, 5,000 cells per well, free uptake, 2,000 nM, approximately 48 hours; RTS4814; normalized to RIBOGREEN; Yap1 mRNA relative to untreated control cells", "outline": "as §1", "values": [{"substance": "1074434 (antisense kA*k[5mC]*kT*dT*d[5mC]*dT*dA*dA*dG*dT*d[5mC]*dT*dG*kA*kG*kT) [Compound 1074434]", "YAP1 (% UTC)": "51* % UTC"}, {"substance": "1076450 (k[5mC]*kT*kT*dG*dA*dA*dT*dA*dG*d[5mC]*dT*dA*dT*kG*kT*kG; antisense) [Compound 1076450]", "YAP1 (% UTC)": "13 % UTC"}, {"substance": "1076546 (antisense k[5mC]*k[5mC]*k[5mC]*d[5mC]*dA*dA*d[5mC]*d[5mC]*dT*dG*dA*dG*dG*kA*kG*k[5mC]) [Compound 1076546]", "YAP1 (% UTC)": "94 % UTC"}, {"substance": "1075426 (antisense kG*kT*kA*dT*dT*dA*dT*dT*dA*dA*dT*d[5mC]*d[5mC]*kT*kG*kT) [Compound 1075426]", "YAP1 (% UTC)": "49 % UTC"}, {"substance": "1074370 (antisense kT*kT*kG*dA*dT*dA*dG*dT*dA*dT*d[5mC]*dA*d[5mC]*k[5mC]*kT*kG) [Compound 1074370]", "YAP1 (% UTC)": "8 % UTC"}, {"substance": "1076514 (antisense k[5mC]*k[5mC]*kT*dT*dA*dG*dG*dA*dG*dA*dT*dG*d[5mC]*kA*k[5mC]*k[5mC]) [Compound 1076514]", "YAP1 (% UTC)": "18 % UTC"}, {"substance": "1075170 (antisense kA*k[5mC]*kT*dA*dA*dA*dA*dT*d[5mC]*d[5mC]*d[5mC]*d[5mC]*dA*kA*kG*kG) [Compound 1075170]", "YAP1 (% UTC)": "94 % UTC"}, {"substance": "1075298 (kA*kT*k[5mC]*dT*d[5mC]*dG*dG*dA*dA*dA*dT*dT*dT*kA*kA*kA; antisense) [Compound 1075298]", "YAP1 (% UTC)": "128 % UTC"}]}, {"tested_on": "Yap1 mRNA", "experiment": "Antisense inhibition of human Yap1 in A-431 cells by cEt gapmers, single dose (Example 4, RTS4814)", "type": "cell-based", "settings": "Table 17; A-431 cells, 5,000 cells per well, free uptake, 2,000 nM, approximately 48 hours; RTS4814; normalized to RIBOGREEN; Yap1 mRNA relative to untreated control cells", "outline": "as §1", "units": {"YAP1 (% UTC)": "% UTC"}, "values": [{"substance": "1074403 (antisense kG*k[5mC]*kT*dT*dA*dT*dG*dG*dA*dA*dA*dT*dT*kT*k[5mC]*k[5mC]) [Compound 1074403]", "YAP1 (% UTC)": 9}, {"substance": "1074659 (antisense k[5mC]*kT*kA*dA*dA*dA*d[5mC]*dT*d[5mC]*d[5mC]*dA*dT*d[5mC]*kT*kG*k[5mC]) [Compound 1074659]", "YAP1 (% UTC)": 12}, {"substance": "1074723 (antisense kG*kG*kT*dA*dA*dA*dG*dG*dA*dA*dG*dA*dT*k[5mC]*kT*k[5mC]) [Compound 1074723]", "YAP1 (% UTC)": 6}, {"substance": "1076547 (antisense kG*kA*k[5mC]*d[5mC]*dA*dA*d[5mC]*d[5mC]*dT*d[5mC]*d[5mC]*d[5mC]*dT*k[5mC]*kA*kG) [Compound 1076547]", "YAP1 (% UTC)": 89}, {"substance": "1075587 (k[5mC]*kT*kT*dA*dT*dT*dA*dG*d[5mC]*dA*d[5mC]*d[5mC]*dT*kG*kG*kG; antisense) [Compound 1075587]", "YAP1 (% UTC)": 50}, {"substance": "1076355 (k[5mC]*kT*kA*d[5mC]*dA*dA*dA*dA*dG*dA*dG*d[5mC]*dT*kA*kT*kG; antisense) [Compound 1076355]", "YAP1 (% UTC)": 92}]}, {"tested_on": "Yap1 mRNA", "experiment": "Antisense inhibition of human Yap1 in A-431 cells by cEt gapmers, single dose (Example 4, RTS4814)", "type": "cell-based", "settings": "Yap1 mRNA remaining as percent of untreated control; 3-10-3 cEt gapmers; A-431 cells; Table 36", "outline": "as §1", "units": {"YAP1 (% UTC)": "% UTC"}, "values": [{"substance": "1076214 (kA*kT*k[5mC]*d[5mC]*dT*dA*dT*dA*d[5mC]*dA*dT*dT*dA*kA*kG*kA; antisense) [compound 1076214]", "YAP1 (% UTC)": 67}, {"substance": "1074582 (DNA kT*kA*kA*dA*d[5mC]*d[5mC]*dA*d[5mC]*dT*dA*dT*dA*dA*kA*kG*k[5mC]; antisense) [compound 1074582]", "YAP1 (% UTC)": 18}, {"substance": "1074806 (kT*kT*kG*dT*dA*dG*d[5mC]*dA*dA*dA*dG*dT*d[5mC]*kA*k[5mC]*kT; antisense) [compound 1074806]", "YAP1 (% UTC)": 8}, {"substance": "1074550 (DNA kA*kT*kA*dT*d[5mC]*dT*dA*d[5mC]*d[5mC]*dG*dT*dA*dT*kG*k[5mC]*k[5mC]; antisense) [compound 1074550]", "YAP1 (% UTC)": 23}, {"substance": "1076470 (kG*kA*kT*dA*dA*dA*dG*dA*dG*dG*dT*dT*dA*kA*k[5mC]*kA; antisense) [compound 1076470]", "YAP1 (% UTC)": 34}, {"substance": "1076438 (kT*kA*kG*dG*dA*dA*dG*dA*dA*dT*dA*dG*d[5mC]*kA*kT*k[5mC]; antisense) [compound 1076438]", "YAP1 (% UTC)": 13}]}, {"tested_on": "Yap1 mRNA", "experiment": "Antisense inhibition of human Yap1 in A-431 cells by cEt gapmers, single dose (Example 4, RTS4814)", "type": "cell-based", "settings": "Yap1 mRNA remaining as percent of untreated control; 3-10-3 cEt gapmers; A-431 cells; Table 37", "outline": "as §1", "units": {"YAP1 (% UTC)": "% UTC"}, "values": [{"substance": "1074199 (antisense kG*k[5mC]*k[5mC]*dG*dG*dT*dT*dG*d[5mC]*d[5mC]*d[5mC]*dG*dG*kG*kT*k[5mC]) [compound 1074199]", "YAP1 (% UTC)": 101}, {"substance": "1076055 (kA*kA*kT*dT*dA*d[5mC]*dT*dA*dA*d[5mC]*dA*dA*dT*k[5mC]*kT*k[5mC]; antisense) [compound 1076055]", "YAP1 (% UTC)": 45}, {"substance": "1075159 (k[5mC]*kA*kA*dA*dA*dA*dA*dT*d[5mC]*dA*d[5mC]*dG*dG*k[5mC]*kA*kA; antisense) [compound 1075159]", "YAP1 (% UTC)": 63}, {"substance": "1075415 (antisense k[5mC]*kA*kT*dT*dA*dA*dA*dT*dG*dA*d[5mC]*dA*dG*k[5mC]*k[5mC]*kT) [compound 1075415]", "YAP1 (% UTC)": 52}, {"substance": "1075959 (kG*kA*kT*dT*dA*dT*dT*dA*dT*dT*dG*d[5mC]*dA*kG*k[5mC]*kT; antisense) [compound 1075959]", "YAP1 (% UTC)": 15}, {"substance": "1074711 (antisense kA*k[5mC]*kT*d[5mC]*dT*dA*dG*dA*dA*d[5mC]*dA*dG*d[5mC]*kT*kG*k[5mC]) [compound 1074711]", "YAP1 (% UTC)": 28}, {"substance": "1075671 (kG*kA*kT*dA*dT*dA*dT*dA*dT*dG*dA*dT*dG*kG*kA*k[5mC]; antisense) [compound 1075671]", "YAP1 (% UTC)": 37}, {"substance": "1076311 (kT*kA*kT*dA*dA*d[5mC]*d[5mC]*d[5mC]*dT*dA*dT*dA*d[5mC]*kT*kT*kG; antisense) [compound 1076311]", "YAP1 (% UTC)": 56}, {"substance": "1074295 (antisense kT*kG*kG*dT*dT*dG*dG*dA*dG*dT*dT*dG*d[5mC]*kT*kG*k[5mC]) [compound 1074295]", "YAP1 (% UTC)": 15}]}]}
